Measurements: patent publication US20130281362A1, “ANTIVIRAL AGENT” (priority 2011, published 2013)

Test system: influenza A virus strain A/Aichi/02/68 (H3N2)
Set-up: species or system non-inbred male white mice
Settings: mouse, in vivo, 60 mg/kg

Structure (SMILES): CCOC(=O)c1c(CSc2ccccc2)n(C)c2cc(Br)c(O)c(CN(C)C)c12 [Arbidol 970609]
- Death rate: 10/15
- Increase in MST: 2.6 days
- MST: 9.3 days
- Protection against death (%): 33.3%
